From patent US12466841B2, “Substituted pyrrolo[3,4-c]pyridines as HPK1 antagonists” (Nimbus Saturn, Inc., priority 2021, dated 2025)

What follows are molecules tested against HPK1 (Homo sapiens (Human), UniProt Q92918) (assay: HPK1 biochemical enzyme assay (microfluidic mobility shift)). Details: 1.5 nM HPK1, ATP 1 mM final, 60 min at RT, Caliper EZ Reader; read-out: HPK1 1000UMATP caliper IC50.
Procedure: HPK1 biochemical enzyme assay: HPK1 enzyme inhibition was measured using a microfluidic mobility shift assay. Reactions were performed in a 384-well plate, containing 1.5 nM HPK1 (Invitrogen), in assay buffer (Cana Biosciences; pH 7.4). Test compounds were titrated in ten point curves (top final assay concentration 3 μM), and preincubated with enzyme/substrate mix for 30 min prior to initiation of the reaction by addition of ATP (1 mM final concentration) and substrate (1 μM final concentration; Carna Biosciences) diluted in assay buffer supplemented by MgCl2 (final assay concentration of 5 mM). Following 60 min incubation at RT, the reaction was terminated by addition of 60 μl/well termination buffer (Carna Biosciences) and signal determination using a Caliper EZ Reader (Perkin Elmer, UK).
Compounds having an activity designated as “A” provided an IC50≤100 nM; compounds having an activity designated as “B” provided an IC50>100 nM.

HPK1, sequence (Q92918 whole entry): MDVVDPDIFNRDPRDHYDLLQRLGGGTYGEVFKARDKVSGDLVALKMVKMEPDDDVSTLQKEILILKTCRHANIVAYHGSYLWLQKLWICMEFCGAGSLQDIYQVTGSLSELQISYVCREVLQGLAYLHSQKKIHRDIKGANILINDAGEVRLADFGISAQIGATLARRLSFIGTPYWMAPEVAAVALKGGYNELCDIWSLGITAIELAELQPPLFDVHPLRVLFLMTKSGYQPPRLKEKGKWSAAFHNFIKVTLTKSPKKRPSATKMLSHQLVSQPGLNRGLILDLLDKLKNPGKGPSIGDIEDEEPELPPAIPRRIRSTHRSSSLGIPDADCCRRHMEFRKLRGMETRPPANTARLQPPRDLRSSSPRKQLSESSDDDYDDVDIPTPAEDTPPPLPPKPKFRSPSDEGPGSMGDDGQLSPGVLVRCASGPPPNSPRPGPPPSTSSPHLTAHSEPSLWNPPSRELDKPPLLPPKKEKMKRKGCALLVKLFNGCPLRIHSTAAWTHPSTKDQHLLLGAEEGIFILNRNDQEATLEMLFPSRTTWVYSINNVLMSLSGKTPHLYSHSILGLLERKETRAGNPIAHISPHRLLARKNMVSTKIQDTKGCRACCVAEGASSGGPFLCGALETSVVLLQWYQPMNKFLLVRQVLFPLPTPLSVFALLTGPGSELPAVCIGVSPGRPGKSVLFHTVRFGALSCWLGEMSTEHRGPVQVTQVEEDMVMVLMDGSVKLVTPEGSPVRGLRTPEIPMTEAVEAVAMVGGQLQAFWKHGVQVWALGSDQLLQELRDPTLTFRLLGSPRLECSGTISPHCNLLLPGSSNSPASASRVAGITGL

With Cn1ccc2c(-c3cnc(Nc4ccc(N5CCC[C@H](C(C)(C)O)C5)cc4)c4c3CNC4=O)ccnc21 [Compound I-11, (S)-4-((4-(3-(2-hydroxypropan-2-yl)piperidin-1-yl)phenyl)amino)-7-(1-methyl-1H-pyrrolo[2,3-b]pyridin-4-yl)-1,2-dihydro-3H-pyrrolo[3,4-c]pyridin-3-one] as the molecule, how does the IC50 read?
Its IC50 is at most 100 nM.

For CNC1CCN(c2ccc(Nc3ncc(-c4ccncc4)c4c3C(=O)NC4)cc2)CC1 [Compound I-23, 4-((4-(4-(methylamino)piperidin-1-yl)phenyl)amino)-7-(pyridin-4-yl)-1,2-dihydro-3H-pyrrolo[3,4-c]pyridin-3-one], which IC50 is on record?
The IC50 was over 100 nM.

CN1CCN(c2ccc(Nc3ncc(-c4ccncc4)c4c3C(=O)NC4)cc2)CC1 [Compound I-5, 4-((4-(4-methylpiperazin-1-yl)phenyl)amino)-7-(pyridin-4-yl)-1,2-dihydro-3H-pyrrolo[3,4-c]pyridin-3-one] was tested. Which IC50 did it give?
Its IC50 is over 100 nM.

Which IC50 does the source give for Cn1ccc2c(-c3cnc(Nc4ccc(S(C)(=O)=O)cc4)c4c3CNC4=O)ccnc21 [Compound I-9, 7-(1-methyl-1H-pyrrolo[2,3-b]pyridin-4-yl)-4-((4-(methylsulfonyl)phenyl)amino)-1,2-dihydro-3H-pyrrolo[3,4-c]pyridin-3-one] here?
Its IC50 is over 100 nM.

With Cn1ccc2c(-c3cnc(Nc4ccc(N5CCC(O)CC5)cc4)c4c3CNC4=O)ccnc21 [Compound I-8, 4-((4-(4-hydroxypiperidin-1-yl)phenyl)amino)-7-(1-methyl-1H-pyrrolo[2,3-b]pyridin-4-yl)-1,2-dihydro-3H-pyrrolo[3,4-c]pyridin-3-one] as the molecule, how does the IC50 read?
The IC50 was at most 100 nM.

Cc1ccc2c(-c3cnc(Nc4ccc(N5CCC(O)CC5)cc4)c4c3CNC4=O)cnn2c1 [Compound I-13, 4-((4-(4-hydroxypiperidin-1-yl)phenyl)amino)-7-(6-methylpyrazolo[1,5-a]pyridin-3-yl)-1,2-dihydro-3H-pyrrolo[3,4-c]pyridin-3-one] was tested. Which IC50 did it give?
The IC50 was at most 100 nM.

CN(C)Cc1cc(Nc2ncc(-c3ccnc4c3ccn4C)c3c2C(=O)NC3)ccc1N1CCOCC1 [Compound I-7, 4-((3-((dimethylamino)methyl)-4-morpholinophenyl)amino)-7-(1-methyl-1H-pyrrolo[2,3-b]pyridin-4-yl)-1,2-dihydro-3H-pyrrolo[3,4-c]pyridin-3-one] was tested. Which IC50 did it give?
The IC50 was at most 100 nM.

Which IC50 does the source give for CC(C)(O)[C@H]1CN(c2ccc(Nc3ncc(-c4ccncc4)c4c3C(=O)NC4)cc2)CCO1 [Compound I-28, (R)-4-((4-(2-(2-hydroxypropan-2-yl)morpholino)phenyl)amino)-7-(pyridin-4-yl)-1,2-dihydro-3H-pyrrolo[3,4-c]pyridin-3-one] here?
Its IC50 is over 100 nM.

With CN(C)Cc1cc(Nc2ncc(-c3cnc4cc(F)ccn34)c3c2C(=O)NC3)ccc1[C@H]1CCOC1 [Compound I-19, (R)-4-((3-((dimethylamino)methyl)-4-(tetrahydrofuran-3-yl)phenyl)amino)-7-(7-fluoroimidazo[1,2-a]pyridin-3-yl)-1,2-dihydro-3H-pyrrolo[3,4-c]pyridin-3-one] as the molecule, how does the IC50 read?
Its IC50 is at most 100 nM.

With O=C1NCc2c(-c3cnc4cc(F)ccn34)cnc(Nc3ccc(N4CCC(O)CC4)cc3)c21 [Compound I-14, 7-(7-fluoroimidazo[1,2-a]pyridin-3-yl)-4-((4-(4-hydroxypiperidin-1-yl)phenyl)amino)-1,2-dihydro-3H-pyrrolo[3,4-c]pyridin-3-one] as the molecule, how does the IC50 read?
Its IC50 is over 100 nM.

Which IC50 does the source give for CN(C)C[C@H]1CN(c2ccc(Nc3ncc(-c4ccnc5c4ccn5C)c4c3C(=O)NC4)cc2)CCO1 (single isomer, unassigned) [Compound I-18] here?
Its IC50 is at most 100 nM.

With “4-((3-((dimethylamino)methyl)-4-(4-hydroxypiperidin-1-yl)phenyl)amino)-7-(1-methyl-1H-pyrrolo[2,3-b]pyridin-4-yl)-1,2-dihydro-3H-pyrrolo[3,4-c]pyridin-3-one [Compound I-21]” as the molecule, how does the IC50 read?
Its IC50 is over 100 nM.

With COCC1(O)CCN(c2ccc(Nc3ncc(-c4cnc5cc(F)ccn45)c4c3C(=O)NC4)cc2CN(C)C)CC1 [Compound I-22, 4-((3-((dimethylamino)methyl)-4-(4-hydroxy-4-(methoxymethyl)piperidin-1-yl)phenyl)amino)-7-(7-fluoroimidazo[1,2-a]pyridin-3-yl)-1,2-dihydro-3H-pyrrolo[3,4-c]pyridin-3-one] as the molecule, how does the IC50 read?
The IC50 was over 100 nM.

Cn1ccc2c(-c3cnc(Nc4ccc(N5CCC(O)CC5)nc4)c4c3CNC4=O)ccnc21 [Compound I-1, 4-((6-(4-hydroxypiperidin-1-yl)pyridin-3-yl)amino)-7-(1-methyl-1H-pyrrolo[2,3-b]pyridin-4-yl)-1,2-dihydro-3H-pyrrolo[3,4-c]pyridin-3-one] was tested. Which IC50 did it give?
The IC50 was over 100 nM.

How did the IC50 turn out when Cn1ccc2c(-c3cnc(Nc4ccc(N5CCC(O)CC5)cn4)c4c3CNC4=O)ccnc21 [Compound I-10, 4-((5-(4-hydroxypiperidin-1-yl)pyridin-2-yl)amino)-7-(1-methyl-1H-pyrrolo[2,3-b]pyridin-4-yl)-1,2-dihydro-3H-pyrrolo[3,4-c]pyridin-3-one] was run?
The IC50 was over 100 nM.

Which IC50 does the source give for CC(C)(O)[C@@H]1CCCN(c2ccc(Nc3ncc(-c4cnc5cc(F)ccn45)c4c3C(=O)NC4)cc2)C1 (single isomer, unassigned) [Compound I-4] here?
The IC50 was over 100 nM.

With Cn1cncc1-c1cnc(Nc2ccc(N3CCNCC3)cc2)c2c1CNC2=O [Compound I-26, 7-(1-methyl-1H-imidazol-5-yl)-4-((4-(piperazin-1-yl)phenyl)amino)-1,2-dihydro-3H-pyrrolo[3,4-c]pyridin-3-one] as the molecule, how does the IC50 read?
The IC50 was over 100 nM.

How did the IC50 turn out when CC(C)(O)C1CN(c2ccc(Nc3ncc(-c4ccncc4)c4c3C(=O)NC4)cc2)CCO1 (centres unmarked) [Compound I-27, 4-((4-(2-(2-hydroxypropan-2-yl)morpholino)phenyl)amino)-7-(pyridin-4-yl)-1,2-dihydro-3H-pyrrolo[3,4-c]pyridin-3-one] was run?
Its IC50 is over 100 nM.

CN(C)Cc1cc(Nc2ncc(-c3cnc4cc(F)ccn34)c3c2C(=O)NC3)ccc1C1CCOCC1 [Compound I-6, 4-((3-((dimethylamino)methyl)-4-(tetrahydro-2H-pyran-4-yl)phenyl)amino)-7-(7-fluoroimidazo[1,2-a]pyridin-3-yl)-1,2-dihydro-3H-pyrrolo[3,4-c]pyridin-3-one] was tested. Which IC50 did it give?
Its IC50 is at most 100 nM.

For CN1CCN(c2ccc(Nc3ncc(-c4cnc5cc(F)ccn45)c4c3C(=O)NC4)cc2)CC1 [Compound I-15, 7-(7-fluoroimidazo[1,2-a]pyridin-3-yl)-4-((4-(4-methylpiperazin-1-yl)phenyl)amino)-1,2-dihydro-3H-pyrrolo[3,4-c]pyridin-3-one], which IC50 is on record?
The IC50 was over 100 nM.

With Cn1cncc1-c1cnc(Nc2ccc(N3CCC[C@@H](C(C)(C)O)C3)cc2)c2c1CNC2=O [Compound I-25, (R)-4-((4-(3-(2-hydroxypropan-2-yl)piperidin-1-yl)phenyl)amino)-7-(1-methyl-1H-imidazol-5-yl)-1,2-dihydro-3H-pyrrolo[3,4-c]pyridin-3-one] as the molecule, how does the IC50 read?
Its IC50 is over 100 nM.

Which IC50 does the source give for CN(C)Cc1cc(Nc2ncc(-c3cnc4cc(F)ccn34)c3c2C(=O)NC3)ccc1[C@@H]1CCOC1 [Compound I-20, (S)-4-((3-((dimethylamino)methyl)-4-(tetrahydrofuran-3-yl)phenyl)amino)-7-(7-fluoroimidazo[1,2-a]pyridin-3-yl)-1,2-dihydro-3H-pyrrolo[3,4-c]pyridin-3-one] here?
Its IC50 is over 100 nM.

With CN(C)C[C@@H]1CN(c2ccc(Nc3ncc(-c4ccnc5c4ccn5C)c4c3C(=O)NC4)cc2)CCO1 (single isomer, unassigned) [Compound I-17] as the molecule, how does the IC50 read?
Its IC50 is at most 100 nM.

How did the IC50 turn out when CC(C)(O)C1CN(c2ccc(Nc3ncc(-c4cnc5cc(F)ccn45)c4c3C(=O)NC4)cc2)CCO1 (centres unmarked) [Compound I-16, 7-(7-fluoroimidazo[1,2-a]pyridin-3-yl)-4-((4-(2-(2-hydroxypropan-2-yl)morpholino)phenyl)amino)-1,2-dihydro-3H-pyrrolo[3,4-c]pyridin-3-one] was run?
Its IC50 is at most 100 nM.

Which IC50 does the source give for Cn1ccc2c(-c3cnc(Nc4ccc(N5CCC[C@@H](C(C)(C)O)C5)cc4)c4c3CNC4=O)ccnc21 [Compound I-12, (R)-4-((4-(3-(2-hydroxypropan-2-yl)piperidin-1-yl)phenyl)amino)-7-(1-methyl-1H-pyrrolo[2,3-b]pyridin-4-yl)-1,2-dihydro-3H-pyrrolo[3,4-c]pyridin-3-one] here?
Its IC50 is at most 100 nM.

With Cn1cncc1-c1cnc(Nc2ccc(N3CCC[C@H](C(C)(C)O)C3)cc2)c2c1CNC2=O [Compound I-24, (S)-4-((4-(3-(2-hydroxypropan-2-yl)piperidin-1-yl)phenyl)amino)-7-(1-methyl-1H-imidazol-5-yl)-1,2-dihydro-3H-pyrrolo[3,4-c]pyridin-3-one] as the molecule, how does the IC50 read?
Its IC50 is at most 100 nM.
